This note sets out measurements from patent US20240423977A1, “FIVE-MEMBERED RING-FUSED SIX-MEMBERED RING COMPOUND, PREPARATION METHOD THEREFOR, AND PHARMACEUTICAL COMPOSITION AND USE THEREOF” (HANGZHOU POLYMED BIOPHARMACEUTICALS, INC., priority 2022, published 2024).

Broadly, the DC50 is the concentration giving 50% degradation. Read a low DC50 as a more potent degrader. In general, IC50 refers to the concentration at which inhibition is half-maximal. A higher IC50 goes with a need for much substance.

SMILES strings stand for the structures. Where only a bound is given, the exact number is not on record here.

The target in assay [1] is IRAK4 protein in THP-1 cells (Homo sapiens (Human), UniProt Q9NWZ3). Briefly: PROTAC-induced IRAK4 protein degradation in THP-1 cells (Western Blot). Format: cell-based. To be noted: concentration that degraded 50% of IRAK4, Western blotting, 24 hours after administration. The method, then:
2.1 Based on the experimental method of Western Blot, specific antibodies were used to stain the THP-1 cell samples treated by gel electrophoresis, and the degrading activity of the compounds on the IRAK4 protein in THP-1 cells was determined by analyzing the position and depth of staining. The concentrations of compound for the detection included 0 μM, 0.3 μM, 1 μM and 3 μM, and the cells were treated by the compound for 8 hours, 16 hours, 24 hours, and 48 hours. Glyceraldehyde-3-phosphate dehydrogenase (GAPDH) is an internal reference protein in this experiment.
Electrophoresis buffer: 50 mL MOPS SDS Running Buffer (20×) and 50 mL 20×TBS Tween-20 buffer were diluted with deionized water to 1 L as the electrophoresis buffer;
5% skim milk (w/v): 2.5 g skim milk was diluted with 50 mL 1×TBS Tween-20 buffer to prepare 5% skim milk;
5% BSA (w/v): 2.5 g BSA was diluted with 50 mL 1×TBS Tween-20 buffer to prepare 5% BSA;
Anti-IRAK4 antibody was diluted with 5% BSA at 1:1000 into a primary antibody working solution;
Goat Anti-Rabbit IgG H&L (HRP) was diluted with 5% BSA at 1:2000 into a second antibody working solution; and
Goat Anti-Mouse IgG H&L (HRP) was diluted with 5% BSA at 1:2000 into a second antibody working solution.
THP-1 cells were plated in a 6-well plate at a density of 1.5×10^6 cells per ml and incubated for 2 hours in a cell culture incubator under 37° C. and 5% CO2. The compound was diluted with DMSO to 0.6 mM, 0.2 mM and 0.06 mM respectively. 10 μL of compound solution was added to the corresponding wells, and continued to incubate in the incubator for 16 hours, 24 hours and 48 hours respectively. The compound-treated THP-1 cells in the well were collected, added with 120 μL of RIPA lysate containing protease inhibitor, Phosphatase Inhibitor Cocktail 2 and Phosphatase Inhibitor Cocktail 3, lysed on wet ice for 30 minutes, and then the cells lysate was centrifuged at a high speed and a low temperature for 5 minutes to collect the supernatant. The protein concentration of the cell sample was determined according to the instructions in the Pierce™ BCA Protein Assay Kit.
The concentration of the sample was adjusted to be consistent using lysis buffer and NuPAGE® LDS sample buffer containing 1M DTT. The samples were heated at 95° C. for 5 minutes and centrifuged at a low temperature and at a high speed. 20 μL of the prepared protein sample and 4 μL of PageRuler Prestained Protein Ladder were added into the gel well for running at 80V voltage for 0.5 hours, then the voltage was adjusted to 120V for further running for 1.5 hours. The gel was removed and the proteins in the gel were transferred to the IBlotTM 2 transfer membrane set at 20V. After successful transfer, bands at 65 kDa-40 kDa and 40 kDa-30 kDa were cut respectively. The membranes were blocked with 5% skim milk for 1 hour at room temperature. The membranes were washed three times with 1× concentration of TBST, then incubated with IRAK4 antibody working solution overnight at 4° C. The IRAK4 antibody working solution was discarded, and the membranes were washed three times with 1×concentration of TBST, and incubated with Goat Anti-Rabbit IgG H&L (HRP) working solution and Goat Anti-Mouse IgG H&L (HRP) working solution at room temperature. After 1 hour of incubation, the antibody working solution was discarded and the membranes were washed three times with 1× concentration of TBST. According to the instructions of the kit SuperSignal™ West Femto Maximum Sensitivity Substrate, the reagents in the kit were mixed in equal volume proportions to prepare a luminescent liquid mixture. The membranes were incubated for 1 minute, then removed for exposure.
The results of Western blotting 24 hours after administration of the compounds with a concentration of 1 μM were shown in Table 3: […]

The next assay concerns the target kinase IRAK4 (Homo sapiens (Human), UniProt Q9NWZ3). Briefly: Inhibitory effects of compounds on kinase activity (fluorescence microfluidic mobility detection, competitive with ATP). The class given is biochemical. The note with it: IRAK4 6 nM, ATP 10 μM. On the procedure:
Based on an experimental method of fluorescence microfluidic mobility detection, an IC50 value of competitive binding of kinase IRAK4 to ATP by the compounds was determined. The initial detection concentration of the compounds was 10 μM, diluted 4-fold gradient down to […], and tested in duplicate. Among them, commercial staurosporine was the standard control substance in this experiment.
1) IRAK4 kinase was dissolved in kinase buffer (50 mM HEPES pH 7.5, 10 mM MgCl2, 2 mM DTT and 0.01% Brij-35) to a final concentration of 6 nM.
2) The substrate peptide FAM-P8 and ATP were dissolved in the above kinase buffer. The final concentrations of the IRAK4 substrate peptide FAM-P8 and ATP were 3 μM and 10 μM respectively.
3) Dilution of the compounds: the compound was first diluted to 50 μM, and then diluted down with a 4-fold gradient of DMSO. The solution without the compound and kinase is used as a blank control, corresponding to the “minimum value” shown below; and the solution without the compound but with kinase, adenosine 5′-triphosphate disodium salt hydrate, DMSO and buffer is used as a positive control, corresponding to the “maximum value” shown below. 4) Kinase reaction and termination: 10 μL of kinase buffer was added to a 384-well plate containing 5 μL of the compound to be tested, and incubated at room temperature for 10 minutes. Another 10 μL of buffer containing the substrate peptide and adenosine 5′-triphosphate disodium salt hydrate was added to the 384-well plate. After incubation at 28° C. for one hour, 25 μL stop solution (100 mM HEPES pH 7.5, 50 mM EDTA, 0.2% Coating Reagent #3 and 0.015% Brij-35) was added to each well to terminate the reaction.
5) Data reading: the CaliperEZ Reader II instrument was used to read the conversion rate data. Conditions: downstream voltage −500V, upstream voltage −2250V, base pressure −0.5 PSI, and screening pressure −1.2 PSI.
6) Data calculation: the conversion rate data was copied from CaliperEZ Reader II and converted into inhibition rate data. The calculation formula is as follows:
[formula] • IC50 values were fitted using XLFit excel add-in version 5.4.0.8,
Y=Bottom+(Top−Bottom)/(1+(IC50/X)^HillSlope) Fitting formula: […]

Chain of kinase IRAK4 (Q9NWZ3 whole entry): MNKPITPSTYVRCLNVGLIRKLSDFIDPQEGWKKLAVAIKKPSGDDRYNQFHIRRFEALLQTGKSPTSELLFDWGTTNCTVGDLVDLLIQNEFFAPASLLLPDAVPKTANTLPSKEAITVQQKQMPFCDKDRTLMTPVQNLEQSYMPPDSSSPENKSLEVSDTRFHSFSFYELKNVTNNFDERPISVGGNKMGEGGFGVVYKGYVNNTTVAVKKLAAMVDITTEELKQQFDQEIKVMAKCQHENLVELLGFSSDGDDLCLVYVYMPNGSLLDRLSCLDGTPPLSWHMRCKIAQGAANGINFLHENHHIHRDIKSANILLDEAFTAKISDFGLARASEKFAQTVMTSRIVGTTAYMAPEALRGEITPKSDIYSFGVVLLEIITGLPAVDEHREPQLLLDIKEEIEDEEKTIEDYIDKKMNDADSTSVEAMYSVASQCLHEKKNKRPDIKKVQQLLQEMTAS
Chain of IRAK4 protein in THP-1 cells (Q9NWZ3 whole entry): as above

As for `CC(C)(O)c1cc2nn(C3CC4(CCN(C(=O)C5CCN(c6ccc7c(c6)C(=O)N([C@H]6CCC(=O)NC6=O)C7=O)CC5)CC4)C3)cc2cc1NC(=O)c1cccc(C(F)(F)F)n1` [Compound I-63], the DC50 in assay [1] is 2.41 nM. At kinase IRAK4 (Table 2, substrate FAM-P8 3 μM), this molecule showed an IC50 of 32.1 nM.

Turning to `COc1cc2nn(C3CC4(CCN(C5CCN(C(=O)c6ccc7c(c6)C(=O)N(C6CCC(=O)NC6=O)C7=O)CC5)CC4)C3)cc2cc1NC(=O)c1cccc(C(F)(F)F)n1` (stereo not shown) [Compound I-51], in assay [1], the 50% degradation concentration (DC50) was 149 nM. For the same molecule, the 50% inhibitory concentration (IC50) at kinase IRAK4 (Table 2, substrate FAM-P8 3 μM) was determined as 5.33 nM.

In turn, `COc1cc2nn(C3CCC4(CC3)CCN(C(=O)C3CCN(c5ccc6c(c5)C(=O)N(C5CCC(=O)NC5=O)C6=O)CC3)CC4)cc2cc1NC(=O)c1cccc(C(F)(F)F)n1` (stereo not shown) [Compound I-27] returned a half-maximal degradation concentration (DC50) in assay [1] of 6.9 nM. The molecule further had a 50% inhibitory concentration (IC50) on kinase IRAK4 (Table 2, substrate FAM-P8 3 μM) of 42 nM.

The molecule `COc1cc2nn(C3CC4(CCN(C(=O)C5CCN(c6cc7c(cc6F)C(=O)N(C6CCC(=O)NC6=O)C7=O)CC5)CC4)C3)cc2cc1NC(=O)c1cccc(N2CCOCC2)n1` (stereo not shown) [Compound I-46] returned a 50% degradation concentration (DC50) in assay [1] of 9.15 nM. This molecule showed an IC50 on kinase IRAK4 (Table 2, substrate FAM-P8 3 μM) of 17.7 nM.

For `COc1cc2nn(C3CC4(CCN(C(=O)C5CCN(c6cc7c(cc6F)C(=O)N([C@H]6CCC(=O)NC6=O)C7=O)CC5)CC4)C3)cc2cc1NC(=O)c1cccc(C(F)(F)F)n1` [Compound I-61], it took 7.62 nM to reach half-maximal degradation in assay [1] (DC50). At kinase IRAK4 (Table 2, substrate FAM-P8 3 μM), this molecule came in with an IC50 of 31.4 nM.

Take `COc1cc2nn(C3CC4(CCC(C(=O)N5CCN(c6ccc7c(c6)C(=O)N(C6CCC(=O)NC6=O)C7=O)CC5)CC4)C3)cc2cc1NC(=O)c1cccc(C(F)(F)F)n1` (stereo not shown) [Compound I-20]: the half-maximal degradation concentration (DC50) in assay [1] was 11.2 nM. The molecule also gave an IC50 on kinase IRAK4 (Table 2, substrate FAM-P8 3 μM) of 23.6 nM.

As to `COc1cc2nn(C3CC4(CCN(C(=O)C5CCN(c6ccc7c(c6)C(=O)N(C6CCC(=O)NC6=O)C7=O)CC5(F)F)CC4)C3)cc2cc1NC(=O)c1cccc(C(F)(F)F)n1` (stereo not shown) [Compound I-35], it took 7.86 nM to reach half-maximal degradation in assay [1] (DC50). On kinase IRAK4 (Table 2, substrate FAM-P8 3 μM), this molecule had an IC50 of 33.4 nM.

`COc1cc2nn(C3CCN(C(C)C(=O)N4CCN(c5ccc6c(c5)C(=O)N(C5CCC(=O)NC5=O)C6=O)CC4)CC3)cc2cc1NC(=O)c1cccc(C(F)(F)F)n1` (stereo not shown) [II-10] displayed a half-maximal degradation concentration (DC50) in assay [1] of 5.98 nM. For the same molecule, the half-inhibitory concentration (IC50) at kinase IRAK4 (Table 1, class symbols) is under 100 nM; on kinase IRAK4 (Table 2, substrate FAM-P8 3 μM) it was 7.45 nM.

The molecule `COc1cc2nn(C3CC4(CCN(C(=O)[C@H]5CC[C@H](Nc6ccc7c(c6)C(=O)N(C6CCC(=O)NC6=O)C7=O)CC5)CC4)C3)cc2cc1NC(=O)c1cccc(C(F)(F)F)n1` (stereo partly shown) [Compound I-4] displayed a DC50 in assay [1] of 2.06 nM. Moreover, the IC50 at kinase IRAK4 (Table 1, class symbols) is under 100 nM; at kinase IRAK4 (Table 2, substrate FAM-P8 3 μM), 36.6 nM.

In assay [1], `COc1cc2nn(C3CC4(CCN(C(=O)C5CCN(c6ccc7c(c6)CN(C6CCC(=O)NC6=O)C7=O)CC5)CC4)C3)cc2cc1NC(=O)c1cccc(C(F)(F)F)n1` (stereo not shown) [Compound I-7] yielded a half-maximal degradation concentration (DC50) of 3.6 nM. On kinase IRAK4 (Table 2, substrate FAM-P8 3 μM), this molecule displayed an IC50 of 8.1 nM.
